# In patent US6437128B1, “Cribrostatins 3-5” (Arizona Board of Regents, priority 2001, dated 2002):
# Read-outs that look alike come from different tables or passages of the source.
# Tests used:
# Assay type in all cases: cell-based
# [1] = test system: Candida albicans (ATCC 90028); test: Antimicrobial disk diffusion
# [2] = test system: Cryptococcus neoformans (ATCC 90112); test: Antimicrobial disk diffusion
# [3] = test system: Micrococcus luteus (Presque Isle 456); test: Antimicrobial disk diffusion
# [4] = test system: Staphylococcus aureus (ATCC 29213); test: Antimicrobial disk diffusion
# [5] = test system: Enterococcus faecalis (ATCC 29212); test: Antimicrobial disk diffusion
# [6] = test system: Bacillus subtilis (Presque Isle 620); test: Antimicrobial disk diffusion
# [7] = test system: Streptococcus pneumoniae (ATCC 6303); test: Antimicrobial disk diffusion
# [8] = test system: Penicillin-resistant S. pneumoniae (clinical isolate); test: Antimicrobial disk diffusion
# [9] = test system: Invasive S. pneumoniae (clinical isolate); test: Antimicrobial disk diffusion
# [10] = test system: Group A Streptococcus (clinical isolate); test: Antimicrobial disk diffusion
# [11] = test system: Stenotrophomonas maltophilia (ATCC 13637); test: Antimicrobial disk diffusion
# [12] = test system: Escherichia coli (ATCC 25922); test: Antimicrobial disk diffusion
# [13] = test system: Enterobacter cloacae (ATCC 13047); test: Antimicrobial disk diffusion
# [14] = test system: Neisseria gonorrhoeae (ATCC 49226); test: Antimicrobial disk diffusion
# [15] = test system: Penicillin-resistant N. gonorrhoeae (clinical isolate); test: Antimicrobial disk diffusion
# [16] = test system: P388 lymphocytic leukemia; test: in vitro murine P388 lymphocytic leukemia (PS) cell growth inhibition
# From the text: The fractions obtained from the 1988-89 recollection of Cribrochalina so. (See: Pettit, G. R.; Collins, J. C.; Herald, D. L.; Doubek, D. L.; Boyd, M. R.; Schmidt, J. M.; Hooper, J. N. A.; Tackett, L. P. Can. J. Cheim. 1992, 70, 1170-1175) beginning with the 195 g dichloromethane partition fraction were re-examined guided by bioassay results using the murine P388 lymphocytic leukemia.
# (§1) Individual cell line response values are provided in the Experimental.
# BXPC-3 (Pancreas-a) = test: ASU-CRI minipanel of human cancer cell lines; settings: Pancreas-a BXPC-3
# From the text: as §1
# DU-145 (Prostate) = test: ASU-CRI minipanel of human cancer cell lines; settings: Prostate DU-145
# From the text: as §1
# KM20L2 (Colon) = test: ASU-CRI minipanel of human cancer cell lines
# From the text: as §1
# NCI-H460 (Lung-NSC) = test: ASU-CRI minipanel of human cancer cell lines
# From the text: as §1
# OVCAR-3 (Ovarian) = test: ASU-CRI minipanel of human cancer cell lines; settings: Ovarian OVCAR-3
# From the text: as §1
# SF-295 (CNS) = test: ASU-CRI minipanel of human cancer cell lines; settings: CNS SF-295
# From the text: as §1
structure (smiles),measurement,setting,value
"CCOC1=C(C)C(=O)c2cc(=O)n(C)cc2C1=O [Cribrostatin 2, cribrostatin 2, reference compound]",Minimum inhibitory concentration,[1],3.12-6.25 μg/disk
same,Minimum inhibitory concentration,[2],12.5-25 μg/disk
same,Minimum inhibitory concentration,[3],50-100 μg/disk
same,Minimum inhibitory concentration,[4],12.5-25 μg/disk
same,Minimum inhibitory concentration,[5],* (No inhibition at 100 μg/disk)
same,Minimum inhibitory concentration,[6],25-50 μg/disk
same,Minimum inhibitory concentration,[7],12.3-25 μg/disk
same,Minimum inhibitory concentration,[8],25-50 μg/disk
same,Minimum inhibitory concentration,[9],50-100 μg/disk
same,Minimum inhibitory concentration,[10],* (No inhibition at 100 μg/disk)
same,Minimum inhibitory concentration,[11],* (No inhibition at 100 μg/disk)
same,Minimum inhibitory concentration,[12],* (No inhibition at 100 μg/disk)
same,Minimum inhibitory concentration,[13],* (No inhibition at 100 μg/disk)
same,Minimum inhibitory concentration,[14],0.39-0.78 μg/disk
same,Minimum inhibitory concentration,[15],0.39-0.78 μg/disk
"C/C=C(/C)C(=O)OC[C@H]1C2=C(C=C3[C@H]4c5c(O)c(OC)c(C)c(O)c5C(=O)[C@@H](C(=O)N31)N4C)C(=O)C(C)=C(OC)C2=O [Cribrostatin 5, cribrostatin 5]",GI50,[16]; Mouse Leukemia P388,0.045 µg/mL
same,PS ED50 (P388 ED50),"[16]; in vitro P388 lymphocytic leukemia, listed as cribrostatin 5",0.045 µg/mL
same,GI50,BXPC-3 (Pancreas-a),0.29 µg/mL
same,GI50,DU-145 (Prostate),0.30 µg/mL
same,GI50,KM20L2 (Colon),0.14 µg/mL
same,GI50,NCI-H460 (Lung-NSC),0.22 µg/mL
same,GI50,OVCAR-3 (Ovarian),0.18 µg/mL
same,GI50,SF-295 (CNS),0.36 µg/mL
same,Minimum inhibitory concentration,[3]; listed as 4b,50-100 μg/disk
same,Minimum inhibitory concentration,[6],* (No inhibition at 100 μg/disk)
same,Minimum inhibitory concentration,[7]; listed as 4b,* (No inhibition at 100 μg/disk)
